How the values were obtained:
[1] = test system: human epidermoid carcinoma cells; conditions: low versus higher concentrations; cited from earlier work
[2] = test system: human metastatic cell lines; conditions: administered directly to the cell lines, in vitro; cited from earlier work
[3] = test system: pulmonary artery endothelial cells; experiment: Phospholipase A2 increase following hypoxia/anoxia of pulmonary artery endothelial cells in vitro; format: cell-based
Protocol: Following ischemia and reperfusion, activation of A1 adenosine receptors present on pulmonary arterial endothelial cells results in a cytotoxic effect. In heart tissue adenosine, A1 adenosine receptor agonists, or a brief period (from approximately 5 to about 15 minutes) of preconditioning ischemia attenuates ischemia-reperfusion (I-R) injury. See, […] Keith, Am. J. Physiol. 268:[…] (1995). In the lung, thromboxane is released during ischemia and is a mediator of I-R injury. Adenosine produces vasoconstriction in the pulmonary vascular bed by acting on A1 receptors to induce the release of thromboxane. These vasoconstrictor responses in endothelial cells are desensitized by prior treatment with low doses of A1 receptor agonists. It was hypothesized that during preconditioning ischemia, adenosine attenuates ischemia-reperfusion injury of the heart by activation and subsequent desensitization of A1 adenosine receptors. Preconditioning ischemia attenuates ischemia-reperfusion (I-R) injury of both lung and heart. […]

[4] = test system: pulmonary arterial endothelial cells; experiment: Thromboxane release from pulmonary arterial endothelial cells; format: cell-based
Excerpt: DPCPX and ^125I-BW A844U. These findings indicate that LPS binds to and activates Al adenosine receptors on pulmonary artery endothelial cells. Also, A1 adenosine receptor antagonists are able to block such endotoxin-induced lung injury, supporting that activation of A1 adenosine receptors is important in endotoxin-induced acute lung injury. Neely, Jin and Keith, Am J. Physiol., Lung Cell Mol. Physiol. , 268:L1036, 1995.
The methods of the present invention also utilize hypoxia and reoxygenation conditions to increase A1 adenosine receptor activation and signal transduction pathways which, following activation, result in the release of cytotoxic substances. As noted above, following ischemia and reperfusion, activation of A1 adenosine receptors present on pulmonary arterial endothelial cells causes a cytotoxic effect (Neely and Keith (1995)), and the release of a cytotoxic substance, thromboxane, has been found by the present inventor to be blocked by an A1 adenosine receptor antagonist (DPCPX). In heart tissue adenosine, A1 adenosine receptor agonists, or a brief period of preconditioning ischemia attenuates ischemia-reperfusion (I-R) injury. In the lung, thromboxane is released during ischemia and is a mediator of I-R injury. Moreover, ischemia and reperfusion enhance the capacity of LPS to produce cytotoxicity and damage organs. […]

A1 adenosine receptors = target: T1, A1 adenosine receptors (Homo sapiens, UniProt P30542); experiment: Endotoxin induced inhibition of adenylate cyclase in pulmonary arterial endothelial cells; format: cell-based
T1 construct: endogenous in cells; host or cells: pulmonary arterial endothelial cells
T1 sequence (P30542 1-326): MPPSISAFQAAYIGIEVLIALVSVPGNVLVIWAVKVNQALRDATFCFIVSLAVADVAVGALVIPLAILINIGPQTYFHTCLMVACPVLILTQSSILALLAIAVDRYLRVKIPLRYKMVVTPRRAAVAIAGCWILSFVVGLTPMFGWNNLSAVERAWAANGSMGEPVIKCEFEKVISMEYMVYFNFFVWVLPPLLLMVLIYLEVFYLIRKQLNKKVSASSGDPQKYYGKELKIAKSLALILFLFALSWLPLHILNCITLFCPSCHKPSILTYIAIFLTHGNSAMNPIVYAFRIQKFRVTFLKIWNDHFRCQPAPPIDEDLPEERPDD
Excerpt: DPCPX and ^125I-BW A844U. […] Neely, Jin and Keith, Am J. Physiol., Lung Cell Mol. Physiol. , 268:L1036, 1995.

monocytes = conditions: cited from earlier work

For `Nc1ncnc2c1ncn2[C@@H]1O[C@H](CO)[C@@H](O)[C@H]1O` [adenosine], the colony formation [1] is given as “biphasic response”.

In the case of `CCNC(=O)[C@H]1O[C@@H](n2cnc3c(N)ncnc32)[C@H](O)[C@@H]1O` [NECA, 5′-(N-ethyl)-carboxamidoadenosine], the “effect on cell growth” value [2] is given as “inhibitory effect”.

With `CCCn1c(=O)c2[nH]c(C3CCCC3)nc2n(CCC)c1=O` [DPCPX, 1,3 dipropyl 8 cyclopentylxanthine] the “increase in phospholipase A2 (PLA2)” value [3] was “inhibits”, the release of thromboxane ([4]; following ischemia and reperfusion, A1 adenosine receptor activation) was “blocked” and the “endotoxin induced thromboxane release” value ([4]; pulmonary arterial endothelial cells) was “blocked”. The “endotoxin induced inhibition of adenylate cyclase” value (A1 adenosine receptors) was “blocked”.

For `[Na+].[Na+].[Na+].[O]=[V]([O-])([O-])[O-]` [vanadate, sodium orthovanadate], the “LPS induced production of TNFα” value (monocytes) is given as “enhanced”.

In the case of `CCCn1c(=O)c2[nH]c(-c3ccc(Cl)cc3N)nc2n(CCC)c1=O` [PACPX, 1,3-dipropyl-8-(2-amino-4-chloropheny)-xanthine], the “effect on cell growth” value [2] is listed as “inhibitory effect”.
